Laboratory results: ChEMBL document CHEMBL1201862, “PubChem BioAssay data set” (2004)
Active and inactive are the calls of the source.

Legend:
[1] = molecular target: T1, Kappa-type opioid receptor (Homo sapiens, UniProt P41145); assay: KOR agonist analogs, arrestin-GFP redistribution, SAR follow-up, imaging, image-based, set 3 (AID 488833); format: functional
Mu-type opioid receptor = Mu-type opioid receptor (Homo sapiens, UniProt P35372); assay: SAR Analysis of Agonists of the MOR Receptor using an Image-Based Assay - Set 3. [Related pubchem assays (depositor defined):AID1777, AID1785, AID1786, AID1966, AID2133, AID2136, AID2284, AID2285, AID2352]; format: functional
Chain of Mu-type opioid receptor (P35372 whole entry): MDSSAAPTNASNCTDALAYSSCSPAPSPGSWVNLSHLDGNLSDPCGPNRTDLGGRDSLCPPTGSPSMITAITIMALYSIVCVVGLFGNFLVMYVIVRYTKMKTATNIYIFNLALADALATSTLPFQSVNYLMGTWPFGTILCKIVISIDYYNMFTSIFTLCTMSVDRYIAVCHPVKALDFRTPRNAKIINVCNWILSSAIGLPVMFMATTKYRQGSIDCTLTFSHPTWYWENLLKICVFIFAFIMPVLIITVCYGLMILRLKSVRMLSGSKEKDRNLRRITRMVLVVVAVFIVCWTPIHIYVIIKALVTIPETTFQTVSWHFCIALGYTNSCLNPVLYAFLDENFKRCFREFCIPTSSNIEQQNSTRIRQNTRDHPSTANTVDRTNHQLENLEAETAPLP

[2] = molecular target: Delta-type opioid receptor (Homo sapiens, UniProt P41143); assay: SAR Analysis of Agonists of the DOR Receptor using an Image-Based Assay - Set 3. [Related pubchem assays (depositor defined):AID1777, AID1786]; format: functional
Chain of Delta-type opioid receptor (P41143 whole entry): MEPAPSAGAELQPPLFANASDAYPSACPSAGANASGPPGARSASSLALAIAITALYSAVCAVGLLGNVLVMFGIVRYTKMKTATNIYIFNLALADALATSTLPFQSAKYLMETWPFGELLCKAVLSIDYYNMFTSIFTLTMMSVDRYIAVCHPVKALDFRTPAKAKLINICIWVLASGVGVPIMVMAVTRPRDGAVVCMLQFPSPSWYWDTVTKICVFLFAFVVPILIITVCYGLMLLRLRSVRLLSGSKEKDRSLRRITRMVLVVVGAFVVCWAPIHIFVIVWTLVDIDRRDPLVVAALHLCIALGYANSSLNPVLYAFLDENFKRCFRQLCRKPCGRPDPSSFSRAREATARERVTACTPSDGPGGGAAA

[3] = molecular target: T1, Kappa-type opioid receptor; assay: SAR analysis of small molecule agonists of the kappa opioid receptor via a luminescent beta-arrestin assay - Set 3. [Related pubchem assays (depositor defined):AID1777, AID1785, AID1786, AID1966, AID2133, AID2136, AID2284, AID2500]; format: functional
[4] = Luminescence Cell-Based Dose Response HTS to Identify Inhibitors of Luciferase Translation or Activity in H4-C Neuroglioblastoma Cells. [Related pubchem assays: 1813 (Primary HTS), 1827 (Project Summary)]; format: functional
[5] = inhibitors of firefly luciferase expression or activity, dose response, H4 neuroglioma cells, luminescence (AID 1990); format: functional, cell-based
[6] = Luminescence Cell-Based Dose Retest to Confirm Activators of 5'UTR Stem-Loop Driven Alpha-Synuclein mRNA Translation in H4 Neuroglioblastoma Cells. [Related pubchem assays (depositor defined):AID1813, AID1829]; format: functional
[7] = ELISA Cell-Based Dose Response to Identify Inhibitors of Alpha-Synuclein Translation in SH-SY5Y Cells. [Related pubchem assays: 1813 (Primary HTS), 1827 (Project Summary)]; format: functional
[8] = Luminescence Cell-Based Dose HTS Response to Identify Inhibitors of 5'UTR Stem-Loop Driven Prion Protein mRNA Translation in H4-C Neuroglioblastoma Cells. [Related pubchem assays (depositor defined):AID1814, AID1827]; format: functional
[9] = Western Blot Cell-Based Dose Response to Identify Inhibitors of […] Alpha-Synuclein Translation in H4 Cells. [Related pubchem assays: 1827 (Project Summary), 1813 (Primary HTS)]
[10] = Luminescence Cell-Based Dose Response HTS to Identify Inhibitors of 5'UTR Stem-Loop Driven Prion Protein mRNA Translation in H4 Neuroglioblastoma Cells. [Related pubchem assays: 1827 (Project Summary), 1813 (Primary HTS)]; format: functional
[11] = inhibitors of SNCA 5'UTR-driven reporter translation, confirmation, H4 neuroglioma cells, luminescence (AID 1988); format: functional, cell-based
[12] = Luminescence Cell-Based Dose Confirmation HTS to Identify Inhibitors of 5'UTR Stem-Loop Driven Alpha-Synuclein mRNA Translation in H4 Neuroglioblastoma Cells. [Related pubchem assays: 1827 (Project Summary), 1813 (Primary HTS)]; format: functional
[13] = molecular target: T2, Heat shock factor protein 1 (Mus musculus, UniProt P38532); assay: HSF1 potentiators in luciferase reporter cells, confirmation, cell-based, NIH3T3, luminescence, dose retest (AID 435004); format: functional;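 note: stress induced by proteasome inhibitor MG132 added 30 min after compound; luciferase reporter driven by HSF1 response element in NIH3T3 cells; actives raise luminescence as potentiators of the MG132 stress response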
T2 sequence (P38532 whole entry): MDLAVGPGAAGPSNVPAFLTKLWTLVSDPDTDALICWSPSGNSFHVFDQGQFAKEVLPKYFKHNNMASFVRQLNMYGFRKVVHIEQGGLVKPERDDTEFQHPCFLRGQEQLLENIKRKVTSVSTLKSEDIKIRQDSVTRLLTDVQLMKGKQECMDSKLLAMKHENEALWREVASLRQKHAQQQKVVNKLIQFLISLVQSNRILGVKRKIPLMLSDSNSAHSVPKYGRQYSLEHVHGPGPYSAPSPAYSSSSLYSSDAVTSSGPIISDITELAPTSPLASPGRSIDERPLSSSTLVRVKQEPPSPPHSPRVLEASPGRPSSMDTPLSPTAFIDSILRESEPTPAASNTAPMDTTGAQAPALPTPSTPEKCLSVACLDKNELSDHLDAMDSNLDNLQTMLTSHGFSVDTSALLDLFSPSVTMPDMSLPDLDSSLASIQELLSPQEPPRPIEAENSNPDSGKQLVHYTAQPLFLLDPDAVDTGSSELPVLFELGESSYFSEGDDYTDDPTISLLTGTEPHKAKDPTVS

[14] = molecular target: T3, Runt-related transcription factor 1/Core-binding factor subunit beta (Homo sapiens, UniProt Q01196+Q13951); assay: inhibitors of RUNX1 Runt–CBFb-SMMHC binding, primary screen, biochemical, FRET, Cerulean-Runt, Venus-CBFb-SMMHC, uHTS (AID 1434); format: protein assay;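 note: partner is the CBFb-SMMHC leukemia fusion protein rather than wild-type CBFb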
T3 sequence (Q01196 whole entry, the tested form may be a part): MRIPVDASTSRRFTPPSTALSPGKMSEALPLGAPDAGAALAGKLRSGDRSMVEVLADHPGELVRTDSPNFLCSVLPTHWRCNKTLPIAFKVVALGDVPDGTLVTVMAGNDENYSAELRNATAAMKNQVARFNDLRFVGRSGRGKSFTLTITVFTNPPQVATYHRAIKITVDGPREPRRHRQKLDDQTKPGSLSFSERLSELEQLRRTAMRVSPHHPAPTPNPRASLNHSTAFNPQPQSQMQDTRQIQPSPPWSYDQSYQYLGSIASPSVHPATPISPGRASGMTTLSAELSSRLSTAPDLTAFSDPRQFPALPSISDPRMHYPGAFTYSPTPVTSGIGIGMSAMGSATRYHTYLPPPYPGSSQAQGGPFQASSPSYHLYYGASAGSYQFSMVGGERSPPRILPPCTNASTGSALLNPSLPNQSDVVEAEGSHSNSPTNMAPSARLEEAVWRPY
T3 sequence (Q13951 whole entry, the tested form may be a part): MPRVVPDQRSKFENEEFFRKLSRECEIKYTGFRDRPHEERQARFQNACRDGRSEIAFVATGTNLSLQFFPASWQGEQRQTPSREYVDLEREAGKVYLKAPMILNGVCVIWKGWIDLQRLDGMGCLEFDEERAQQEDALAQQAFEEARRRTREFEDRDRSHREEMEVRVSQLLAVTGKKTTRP

[15] = molecular target: T3, Runt-related transcription factor 1/Core-binding factor subunit beta; assay: inhibitors of RUNX1 Runt–CBFb-SMMHC binding, biochemical, TR-FRET (AID 1438); format: protein assay

T1 sequence (P41145 whole entry): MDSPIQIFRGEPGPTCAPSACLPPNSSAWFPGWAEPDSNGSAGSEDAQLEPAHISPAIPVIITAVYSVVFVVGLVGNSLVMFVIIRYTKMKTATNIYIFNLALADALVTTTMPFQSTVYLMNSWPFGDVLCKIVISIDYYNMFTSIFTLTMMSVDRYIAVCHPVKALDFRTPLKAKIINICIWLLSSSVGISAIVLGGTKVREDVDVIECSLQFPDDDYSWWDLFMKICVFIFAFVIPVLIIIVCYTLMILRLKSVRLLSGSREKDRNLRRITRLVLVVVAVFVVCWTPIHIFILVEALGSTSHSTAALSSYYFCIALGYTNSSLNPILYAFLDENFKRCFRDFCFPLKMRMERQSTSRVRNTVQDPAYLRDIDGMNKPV

COc1cccc(CSc2nnc(-c3ccccn3)n2Cc2cccs2)c1
EC50 [1]: 12.2 µM (inactive)
EC50 (Mu-type opioid receptor): > 32 µM (inactive)
EC50 [2]: > 32 µM (inactive)
EC50 [3]: 8.72 µM (active)

CN(C)c1nc(N)nc(CSc2nnnn2-c2cccc3ccccc23)n1
EC50 [4]: > 195 µM (not active)
EC50 [5]: > 120 µM (not active)
EC50 [6]: 1.81 µM (inconclusive)
EC50 [7]: < 0.006 µM (active)
EC50 [8]: > 195 µM (inactive)
EC50 [9]: < 1 µM (active)
EC50 [10]: > 120 µM (not active)
EC50 [11]: 3.5 µM (active)
EC50 [12]: 1.81 µM (active)
EC50 [13]: > 260 µM (inactive)

COC(=O)C1=C(CSc2nc3c(cc2C#N)CN(C)CC3)OC(N)=C(C#N)C1c1ccccc1F (stereo unspecified)
IC50 [14]: > 100 µM (inactive)
IC50 [15]: 60.9 µM (inactive)
